17 molecules from US11945807B2, “Splicing modulator antibody-drug conjugates and methods of use” (EISAI R&D MANAGEMENT CO., LTD., priority 2018, dated 2024) can be followed below.

Read-outs that look alike come from different tables or passages of the source. Where only a bound is given, the exact number is not on record here.

One data set deals with THP1.1. The data set can be described thus: Payload cell potency and lethality CTGlo 72 h, THP1.1. The data set is classed as cell-based. As to conditions: unconjugated payload; for GI50: payload cell potency and lethality.
Data set [1] in a line: Chemical stability of ADC payload, pH 5.5 buffer. The data set is classed as physicochemical. To be noted: for half-life at 20 μM: McIlvaine (citrate-phosphate) buffer, unconjugated payload, Citrate-Phosphate buffer pH 5.5, 37° C., read-out: Stability Mean Stability t1/2 pH5.5 (converted); for pH 5.5 Stability (t1/2, 37 C.): pH 5.5, 37 C., corresponding payload. The source says:
(Eppendorf ThermoMixer). […] Time 0 was set to 100.

Data set [2] in a line: Caco-2 permeability of ADC payload. The data set is classed as in vitro ADME. To be noted: human; for Papp B→A at 2 h, 10 NM: basolateral to apical, read-out: Permeability Mean Caco-2 B-A Perm (10e−G cm/s).
Method: Integrity of cell monolayer was confirmed by TEER (transepithelial electrical resistance) and Lucifer yellow. Payloads were spiked in duplicate at 10 NM, separately, on both sides of the cell monolayer. Permeability rates from the apical to basolateral (A-B) direction and the basolateral to apical (B-A) direction were determined by sampling aliquots from both chambers immediately after treatment (t=0) and following incubation for 2 hours. Samples were protein precipitated with organic solvent containing internal standard and analyzed by LC-MS/MS (SCIEX; API 5500). The area ratio responses of payload/internal standard over time in both directions were used to generate permeability (cm/sec) values.
The subject of a further data set is PC3 cells. The data set can be described thus: Cell viability CellTiter-Glo, PC3 (EPHA2-expressing). The data set is classed as cell-based.
Another data set has as its system MOLP8 cells. The data set can be described thus: Cell viability CellTiter-Glo, MOLP8 (CD138-expressing). The data set is classed as cell-based.
The mark [3] stands for this setting: Caco-2, unconjugated payload, apical to basolateral, 2 hours, read-out: Permeability Mean Caco-2 A-B Perm (10e−6 cm/s).
Setting [4] is: Caco-2, unconjugated payload, 2 hours.
The mark [5] stands for this setting: Caco-2, A-B, corresponding payload (Table 26), read-out: Permeability Caco-2 A-B (10e−6 cm/s).
Where [6] appears, read: anti-CD138 ADC, read-out: SMLA GI50.

Method for MOLP8 cells: (§1) HCC1954 (American Type Culture Collection (ATCC)) breast ductal carcinoma cells were plated at 2000 cells/well in flat bottom 96-well tissue culture plates (Corning) in a total volume of 90 μL tissue culture medium supplemented with 10% fetal bovine serum (ThermoFisher Scientific). Cells were treated with a 3-fold serial dilution of compound from 200 nM to 0.03 nM. Each concentration was tested in triplicate. At the time of treatment, a plate of untreated cells was evaluated using CellTiter-Glo®2.0 Luminescent Cell Viability Assay according to the manufacturers recommendations (Promega; #G9241). CellTiter-Glo® 2.0 reagent was added to the medium, incubated, and assayed on an EnVision Multilabel Reader (PerkinElmer). Values represent time zero (T0). […] Percentage growth inhibition was calculated as: [(T144−T0)/(C−T0)]×100 for concentrations for which T144>/=T0 or [(T144−T0)/T0]×100 for concentrations for which T144<T0. The dose response curve plots were generated using Prism 7 (Graphpad) and fit using nonlinear regression analysis and the log(inhibitor) versus response-variable slope (four parameters).
(§2) Anti-CD138 ADCs were tested in the CD138-expressing MOLP8 multiple myeloma cell line. Similarly, anti-EPHA2 ADCs were tested in the EPHA2-expressing PC3 prostate cancer cell line.
Method for PC3 cells: as §1, §2

Regarding `CC[C@H](O)[C@@H](C)[C@H]1O[C@@H]1C[C@@](C)(O)/C=C/C=C(\C)[C@H]1OC(=O)C[C@H](O)CC[C@@](C)(O)[C@@H](OC(=O)N2CCN(C3CCCCCC3)CC2)/C=C/[C@@H]1C` [D11, E7107], the “CTGlo-AT S Mean Min-Response % 72 h THP1.1” value in the data set on THP1.1 is listed as −100.481%. In addition, the half-life at 20 μM in data set [1] was 90 h. The Papp A→B at 2 h, 10 NM in data set [2] (setting [3]) was determined as 0.87 ×10⁻⁶ cm/s. Besides, the Papp B→A at 2 h, 10 NM in data set [2] (setting [4]) is 10.6 ×10⁻⁶ cm/s.
For `CC[C@H](O)[C@@H](C)[C@H]1O[C@@H]1C[C@H](C)/C=C/C=C(\C)[C@H]1OC(=O)C[C@H](O)CC[C@@](C)(OC(=O)N2CCNCC2)[C@@H](OC(C)=O)/C=C/[C@@H]1C` [D13], in the data set on THP1.1, the “CTGlo-AT S Mean Min-Response % 72 h THP1.1” value is −99.941% and the GI50 came out at 0.892 nM. Moreover, the half-life at 20 μM in data set [1] is less than 24 h. Moreover, the Papp A→B at 2 h, 10 NM in data set [2] (setting [3]) stood at 0.9 ×10⁻⁶ cm/s. Further, the Papp B→A at 2 h, 10 NM in data set [2] (setting [4]) was determined as 17.2 ×10⁻⁶ cm/s.
In the case of `C/C(=C\c1cc(F)cc(N2CCN(C(=O)Cn3cccn3)CC2)c1)[C@H]1OC(=O)C[C@H](O)CC[C@H](C)[C@@H](OC(=O)N2CCNCC2)/C=C/[C@@H]1C` [D16], in the data set on THP1.1, the “CTGlo-AT S Mean Min-Response % 72 h THP1.1” value is listed as −99.681% and the GI50 is on record as 2.975 nM. For the same molecule, in data set [1], the half-life at 20 μM is greater than 168 h and the “pH 5.5 Stability (t1/2, 37 C.)” value stood at 7. Moreover, in data set [2] (setting [5]), the Papp A→B at 2 h, 10 NM was 0.72 ×10⁻⁶ cm/s. Besides, the Papp A→B at 2 h, 10 NM in data set [2] (setting [3]) stood at 0.72 ×10⁻⁶ cm/s. Besides, the Papp B→A at 2 h, 10 NM in data set [2] (setting [4]) stood at 23.3 ×10⁻⁶ cm/s.
In the case of `CC[C@H](O)[C@@H](C)[C@H]1O[C@@H]1C[C@H](C)/C=C/C=C(\C)[C@H]1OC(=O)C[C@H](O)CC[C@@](C)(OC)[C@@H](OC(=O)N2CCN(C)CC2)/C=C/[C@@H]1C` [D19, (2S,3S,6S,7R,10R,E)-10-hydroxy-2-((S,2E,4E)-7-((2R,3R)-3-((2R,3S)-3-hydroxypentan-2-yl)oxiran-2-yl)-6-methylhepta-2,4-dien-2-yl)-7-methoxy-3,7-dimethyl-12-oxooxacyclododec-4-en-6-yl 4-methylpiperazine-1-carboxylate], the GI50 with PC3 cells (Homo sapiens, PC-3, free payload of the ADC) was found to be 1.41 nM; in the data set on MOLP8 cells (Homo sapiens, MOLP-8, unconjugated payload of the ADC in the row, read-out: Payload GI50), 0.84 nM. The “Payload LD50” value in the data set with PC3 cells (free payload of the ADC) is reported as greater than 400 nM. Also, the “Payload Rmin (%)” value in the data set with PC3 cells (free payload of the ADC) was −29.33%. In data set [1], the “pH 5.5 Stability (t1/2, 37 C.)” value is 0.8. Also, the Papp A→B at 2 h, 10 NM in data set [2] (setting [5]) was 16 ×10⁻⁶ cm/s.
Regarding `CC[C@H](O)[C@@H](C)[C@H]1O[C@@H]1C[C@@](C)(O)/C=C/C=C(\C)[C@H]1OC(=O)C[C@H](O)CC[C@@](C)(OC)[C@@H](OC(=O)N(C)CCNC)/C=C/[C@@H]1C` [D20, (2S,3S,6S,7R,10R,E)-10-hydroxy-2-((R,2E,4E)-6-hydroxy-7-((2R,3R)-3-((2R,3S)-3-hydroxypentan-2-yl)oxiran-2-yl)-6-methylhepta-2,4-dien-2-yl)-7-methoxy-3,7-dimethyl-12-oxooxacyclododec-4-en-6-yl methyl(2-(methylamino)ethyl)carbamate], in the data set on THP1.1, the “CTGlo-AT S Mean Min-Response % 72 h THP1.1” value is recorded as −100.664% and the GI50 is 28.336 nM. In addition, the half-life at 20 μM in data set [1] was greater than 168 h. The Papp A→B at 2 h, 10 NM in data set [2] (setting [3]) stood at 0.16 ×10⁻⁶ cm/s. The Papp B→A at 2 h, 10 NM in data set [2] (setting [4]) came out at 0.38 ×10⁻⁶ cm/s.
For `CC[C@H](O)[C@@H](C)[C@H]1O[C@@H]1C[C@@](C)(O)/C=C/C=C(\C)[C@H]1OC(=O)C[C@H](O)CC[C@@](C)(OC)[C@@H](OC(=O)N2CCNC(CCC(=O)O)C2)/C=C/[C@@H]1C` (stereo partly drawn) [D22, N-ethyl-N-isopropylpropan-3-(4-((((2S,3S,6S,7R,10R,E)-10-hydroxy-2-((R,2E,4E)-6-hydroxy-7-((2R,3R)-3-((2R,3S)-3-hydroxypentan-2-yl)oxiran-2-yl)-6-methylhepta-2,4-dien-2-yl)-7-methoxy-3,7-dimethyl-12-oxooxacyclododec-4-en-6-yl)oxy)carbonyl)piperazin-2-yl)propanoic acid], the “CTGlo-AT S Mean Min-Response % 72 h THP1.1” value with THP1.1 is reported as −78.119%. Further, the Papp A→B at 2 h, 10 NM in data set [2] (setting [3]) came to 0.14 ×10⁻⁶ cm/s. In addition, in data set [2] (setting [4]), the Papp B→A at 2 h, 10 NM turned out to be 0.16 ×10⁻⁶ cm/s.
For `C/C(=C\c1cc(F)cc(N2CCN(C(=O)Cn3cccn3)CC2)c1)[C@H]1OC(=O)C[C@H](O)CC[C@H](C)[C@@H](OC(=O)N2CCN(C)CC2)/C=C/[C@@H]1C` [D26], the “CTGlo-AT S Mean Min-Response % 72 h THP1.1” value in the data set with THP1.1 is on record as −99.401%. Moreover, the half-life at 20 μM in data set [1] is greater than 168 h. Also, the Papp A→B at 2 h, 10 NM in data set [2] (setting [3]) was determined as 16 ×10⁻⁶ cm/s. Also, the Papp B→A at 2 h, 10 NM in data set [2] (setting [4]) is 41.1 ×10⁻⁶ cm/s.
Regarding `C/C(=C\c1cc(F)cc(N2CCN(CC(=O)O)CC2)c1)[C@H]1OC(=O)C[C@H](O)CC[C@H](C)[C@@H](OC(=O)N2CCNCC2)/C=C/[C@@H]1C` [D33, 2-(4-(3-fluoro-5-((E)-2-((2S,3S,6R,7S,10R,E)-10-hydroxy-3,7-dimethyl-12-oxo-6-((piperazine-1-carbonyl)oxy)oxacyclododec-4-en-2-yl)prop-1-en-1-yl)phenyl)piperazin-1-yl)acetic acid], in the data set with THP1.1, the “CTGlo-AT S Mean Min-Response % 72 h THP1.1” value is −53.128% and the GI50 worked out at 195.752 nM. The Papp A→B at 2 h, 10 NM in data set [2] (setting [3]) turned out to be 0.13 ×10⁻⁶ cm/s. Moreover, the Papp B→A at 2 h, 10 NM in data set [2] (setting [4]) stood at 0.53 ×10⁻⁶ cm/s.
With `C/C(=C\c1cccc(S(=O)(=O)N2CCCC2)c1)[C@H]1OC(=O)C[C@H](O)CC[C@H](C)[C@@H](OC(=O)N2CCN(C)CC2)/C=C/[C@@H]1C` [D34], the “pH 5.5 Stability (t1/2, 37 C.)” value in data set [1] stood at 7. Further, in data set [2] (setting [5]), the Papp A→B at 2 h, 10 NM was 26 ×10⁻⁶ cm/s.

B1: AB205-ADL12-D2 (conjugate)
heavy: QVQLQQSGSELMMPGASVKISCKATGYTFSNYWIQRPGHGLEWIGEILPGTGRTIYNEKFKGKATFTADISSNTVQMQLSSLTSEDSAVYYCARRDYYGNFYYAMDYWGQGTSVTVSSAKTTPPSVYPLAPGSAAQTNSMVTLGCLVKGYFPEPVTVTWNSGSLSSGVHTFPAVLQSDLYTLSSSVTVPSSTWPSETVTCNVAHPASSTKVDKKIVPRDCGCKPCICTVPEVSSVFIFPPKPKDVLTITLTPKVTCVVVDISKDDPEVQFSWFVDDVEVHTAQTQPREEQFNSTFRSVSELPIMHQDWLNGKEFKCRVNSAAFPAPIEKTISKTKGRPKAPQVYTIPPPKEQMAKDKVSLTCMITDFFPEDITVEWQWNGQPAENYKNTQPIMDTDGSYFVYSKLNVQKSNWEAGNTFTCSVLHEGLHNHHTEKSLSHSPG
light: DIQMTQSTSSLSASLGDRVTISCSASQGINNYLNWYQQKPDGTVELLIYYTSTLQSGVPSRFSGSGSGTDYSLTISNLEPEDIGTYYCQQYSKLPRTFGGGTKLEIKRADAAPTVSIFPPSSEQLTSGGASVVCFLNNFYPKDINVKWKIDGSERQNGVLNSWTDQDSKDSTYSMSSTLTLTKDEYERHNSYTCEATHKTSTSPIVKSFNRNEC
Take B1: in the data set on MOLP8 cells (anti-CD138 ADC), the “SMLA LD50” value is listed as greater than 400 nM and the “SMLA Rmin (%)” value is recorded as −53.125%. The GI50 with MOLP8 cells (setting [6]) is less than 0.061 nM.

B2: AB205-ADL10-D1 (conjugate)
heavy: B1 heavy
light: B1 light
B2: in the data set on MOLP8 cells (anti-CD138 ADC), the “SMLA LD50” value is greater than 400 nM and the “SMLA Rmin (%)” value is reported as −25.099%.

B3: AB205-ADL1-D14 (conjugate)
heavy: B1 heavy
light: B1 light
Take B3: in the data set with MOLP8 cells (anti-CD138 ADC), the “SMLA LD50” value is listed as greater than 400 nM and the “SMLA Rmin (%)” value is −74.008%. In the data set on MOLP8 cells (setting [6]), the GI50 is less than 0.061 nM.

B4: AB205-ADL5-D19 (conjugate)
heavy: B1 heavy
light: B1 light
Consider B4, for which, in the data set on MOLP8 cells (anti-CD138 ADC), the “SMLA LD50” value is on record as greater than 400 nM and the “SMLA Rmin (%)” value is listed as −46.23%. In addition, the GI50 in the data set with MOLP8 cells (setting [6]) was less than 0.061 nM.

B5: AB205-ADL5-D25 (conjugate)
heavy: B1 heavy
light: B1 light
Regarding B5, in the data set on MOLP8 cells (anti-CD138 ADC), the “SMLA LD50” value turned out to be 11.669 nM and the “SMLA Rmin (%)” value is recorded as −76.736%. In the data set on MOLP8 cells (setting [6]), the GI50 is less than 0.061 nM.

B6: AB205-ADL1-D1 (conjugate)
heavy: B1 heavy
light: B1 light
With B6, in the data set with MOLP8 cells (anti-CD138 ADC), the “SMLA LD50” value is recorded as 0.656 nM and the “SMLA Rmin (%)” value was −100.099%. In the data set on MOLP8 cells (setting [6]), the GI50 is less than 0.061 nM.

B7: AB205-ADL5-D15 (conjugate)
heavy: B1 heavy
light: B1 light
For the molecule B7, in the data set with MOLP8 cells (anti-CD138 ADC), the “SMLA LD50” value is greater than 400 nM and the “SMLA Rmin (%)” value is 2.419%. In the data set with MOLP8 cells (setting [6]), the GI50 turned out to be 0.258 nM.

B8: AB205-ADL1-D4 (conjugate)
heavy: B1 heavy
light: B1 light
Consider B8, for which, in the data set with MOLP8 cells (anti-CD138 ADC), the “SMLA LD50” value is 0.535 nM and the “SMLA Rmin (%)” value is on record as −99.306%. In addition, the GI50 with MOLP8 cells (setting [6]) is less than 0.061 nM.
